# Patent US7456154B2 (priority 2001, dated 2008)
# Tests used:
# EAMG rats [1] = assay: Electromyography: CMAP ratio under repetitive 3 Hz nerve stimulation in EAMG rats; type: in vivo, rat; conditions: for Effect on CMAP decline / muscle function in EAMG rats: comparable amounts, Table 1; for CMAP ratio (5th vs. 1st amplitude): average ± SEM; for Effect of oral administration on CMAP decline: oral gavage, 1000 μg/kg pyridostigmine, CMAP 1, 5, 24 h
# AChE-R mRNA = assay: In situ hybridization of AChE-R mRNA in rat muscle; type: in vivo; conditions: healthy and EAMG rats
# Method: In situ hybridization: Tissues were fixed in 4% paraformaldehyde and cut into 7 μm paraffin embedded sections. Spinal cord sections were deparaffinized, rehydrated using serial ethanol dilutions and permeabilized with proteinase K (10 μg/ml at room temp.). Slides were exposed to 5′ biotinylated, fully 2′-oxymethylated AChE-R or AChE-S-specific 50-mer cRNA probes complementary to human ACHE pseudo-intron 4 or exon 6, respectively [Grisaru et al. (2001) id ibid.]. Hybridization was performed overnight at 52° C. in hybridization mixture containing 10 μg/ml probe, 50 μg/ml yeast tRNA, 50 μg/ml heparin and 50% formamide in 375 mM Na chloride, 37.5 mM Na citrate, pH 4.5. For monkey sections, the probe was constructed according to the human AChE-R sequence; for rat sections, according to the mouse sequence. Slides were washed to remove non-hybridized probe, blocked with 1% skim milk containing 0.01% Tween-20 and 2 mM levamisole, an alkaline phosphatase inhibitor used to suppress non-specific staining and incubate with streptavidin-alkaline phosphatase (Amersham Pharmacia). Fast Red™ substrate (Roche Diagnostics) was used for detection. DAPI staining (Sigma Chemical Co., St. Louis, Mo., USA) served to visualize nuclei. Microscope images were analyzed with Image Pro Plus 4.0 (Media Cybernetics) software. […]
# EAMG rats [2] = assay: Repeated daily treatment of EAMG rats (5 days and 1 month): survival, body weight, status; type: in vivo, rat
# Source text: As shown in Example 5, unlike anti-cholinesterases, rEN101 afforded long-term maintenance of stable CMAP. This further enabled the inventors to test whether the cholinergic imbalance contributes to the physiological deterioration that is characteristic of EAMG. Rats were first treated with rEN101 once a day for 5 days, CMAPs being determined prior to each treatment. Both the efficacy of rEN101 in retrieving normal CMAP and its capacity to reduce the inter-animal variability in CMAP values reached similar levels to those of pyridostigmine (FIGS. 11A and 11B). However, the onset of response to pyridostigmine was more rapid (Table 1), while that observed with rEN101 was longer-lasting. Daily oral or i.v administration of rEN101 stabilized CMAPs over the entire course of treatment (FIG. 11B). In contrast, the effect of pyridostigmine wore off within several hours, causing pronounced fluctuations in muscle status (Table 1 and FIG. 11). Among the animals treated daily with pyridostigmine, 5 out of 6 died within the 5 day experimental course. In contrast, 6 out of 8 animals treated once-a-day with rEN101 via o.g. survived the full 5 day period. This conspicuous difference might reflect the susceptibility of EAMG rats to repeated anesthesia and CMAP measurements. In order to avoid these additional stresses and evaluate the effect of the antisense treatment on EAMG pathophysiology, the inventors subjected groups of moderately sick animals to 1 month of daily oral treatment with minimal interference. […] One way repeated measures ANOVA yielded P<0.05 for all other measures (AS vs. other treatments at 4 weeks). The effect of rEN101 on clinical symptoms was also corroborated by body weight changes. Rats treated with saline and Mestinon treated groups lost 13.5 and 11 g/animal, respectively, whereas animals treated with rEN101 gained, on average, 13 g during the treatment period. Thus, daily rEN101 administration promoted long-term change in the course of EAMG in rats with moderate to severe symptoms, under the same conditions in which untreated or pyridostigmine-treated animals deteriorated.
# [3] = intravenous, EAMG rats, 0 h, 50 μg/Kg
# [4] = intravenous, EAMG rats, 1 h, 50 μg/Kg
# [5] = intravenous, EAMG rats, 5 h, 50 μg/Kg
# [6] = intravenous, EAMG rats, 24 h, 50 μg/Kg
# [7] = oral, EAMG rats, 0 h, 50 μg/Kg oligonucleotide, 1000 μg/Kg pyridostigmine
# [8] = oral, EAMG rats, 1 h, 50 μg/Kg oligonucleotide, 1000 μg/Kg pyridostigmine
# [9] = oral, EAMG rats, 5 h, 50 μg/Kg oligonucleotide, 1000 μg/Kg pyridostigmine
# [10] = oral, EAMG rats, 24 h, 50 μg/Kg oligonucleotide, 1000 μg/Kg pyridostigmine
Compound,Effect on CMAP decline / muscle function in EAMG rats (EAMG rats [1]),CMAP ratio (5th vs. 1st amplitude) (EAMG rats [1]; [3]),CMAP ratio (5th vs. 1st amplitude) (EAMG rats [1]; [4]),CMAP ratio (5th vs. 1st amplitude) (EAMG rats [1]; [5]),CMAP ratio (5th vs. 1st amplitude) (EAMG rats [1]; [6]),Effect of oral administration on CMAP decline (EAMG rats [1]; 50 μg/Kg oligonucleotide),CMAP ratio (5th vs. 1st amplitude) (EAMG rats [1]; [7]),CMAP ratio (5th vs. 1st amplitude) (EAMG rats [1]; [8]),CMAP ratio (5th vs. 1st amplitude) (EAMG rats [1]; [9]),CMAP ratio (5th vs. 1st amplitude) (EAMG rats [1]; [10]),AChE-R mRNA labeling in muscle (AChE-R mRNA),"CMAP ratio 24 h following single oral administration (EAMG rats [1]; single oral dose, rEN101 50 μg/kg, pyridostigmine 1000 μg/kg)","Animals that died within the 5 day experimental course (EAMG rats [2]; EAMG rats treated daily, with repeated anesthesia and CMAP measurements)","Body weight lost during the treatment period (EAMG rats [2]; EAMG rats, 1 month daily oral treatment)","CMAP after treatment (EAMG rats [1]; 75 μg/kg i.p., EAMG rats)","Duration of effect on CMAP (EAMG rats [1]; 75 μg/kg i.p., EAMG rats)","Onset of effect on CMAP after injection (EAMG rats [1]; 75 μg/kg i.p., EAMG rats)","CMAP after treatment relative to untreated level (EAMG rats [1]; 75 μg/kg i.p., EAMG rats, untreated 87.6% of first evoked potential)"
5′-GGGAGAGGAGGAGGAAGAGG-3′ [rEN102],induced similar rectification of CMAP decline,0.85 ± 0.06,1.04 ± 0.01,0.98 ± 0.03,1.00 ± 0.01,active in reversing CMAP decline,0.82 ± 0.02,0.86 ± 0.04,0.96 ± 0.02,0.95 ± 0.03,,,,,,,,
"5′-GGAGAAGGAGGAGGAGAGGG-3′ (chemistry not given here) [r-invEN102, reference compound]",did not improve muscle function,0.89 ± 0.02,0.89 ± 0.03,0.89 ± 0.02,0.90 ± 0.02,had no significant effect,0.78 ± 0.06,0.86 ± 0.05,0.86 ± 0.05,0.81 ± 0.08,unaffected,,,,,,,
"CN(C)C(=O)Oc1ccc[n+](C)c1 [pyridostigmine, reference compound]",,,,,,restored CMAP for up to several hours,0.90 ± 0.01,0.98 ± 0.01,0.96 ± 0.02,0.87 ± 0.02,,returned to the declining baseline,5 out of 6,11 g/animal,,,,
"CN(C)C(=O)Oc1cccc([N+](C)(C)C)c1 [neostigmine bromide, reference compound]",,,,,,,,,,,,,,,107.4 % of the first evoked potential,2 h,15 min,over 120 % of this level
